Source: ChEMBL document CHEMBL2331107, “Novel fluorescent risedronates: synthesis, photodynamic inactivation and imaging of Bacillus subtilis” (2013)
Activity calls are given as the source filed them. No cut-off for these calls is given here.

Columns and labels:
Bacillus subtilis [1] = assay: Antimicrobial activity against Bacillus subtilis ATCC 6633 assessed as photodynamic inactivation measured as lethality at 10 uM; format: functional
Bacillus subtilis [2] = assay: Antimicrobial activity against Bacillus subtilis ATCC 6633 measured after 24 hrs at 37 degC; format: functional; settings: ATCC 6633, 24 h

SMILES: O=C(O)c1cc2c(ccc3ccccc32)oc1=O
- Activity (Bacillus subtilis [1]): inactive

SMILES: O=C(NCC(O)C[n+]1cccc(CC(O)(P(=O)(O)O)P(=O)(O)O)c1)c1ccccc1 (stereo not drawn)
- MIC (Bacillus subtilis [2]): > 128 µg/mL

SMILES: O=C(NCC(O)C[n+]1cccc(CC(O)(P(=O)(O)O)P(=O)(O)O)c1)c1cc2c(ccc3ccccc32)oc1=O (stereo not drawn)
- Activity (Bacillus subtilis [1]): 47%
- MIC (Bacillus subtilis [2]): > 128 µg/mL

SMILES: O=C(NCC(O)C[n+]1cccc(CC(O)(P(=O)(O)O)P(=O)(O)O)c1)c1ccccc1O (stereo not drawn)
- MIC (Bacillus subtilis [2]): > 128 µg/mL

SMILES: O=C(NCC(O)C[n+]1cccc(CC(O)(P(=O)(O)O)P(=O)(O)O)c1)c1cc2ccccc2oc1=O (stereo not drawn)
- Activity (Bacillus subtilis [1]): 91%
- MIC (Bacillus subtilis [2]): > 128 µg/mL

SMILES: O=C(O)c1cc2ccccc2oc1=O
- Activity (Bacillus subtilis [1]): inactive
